In PubChem BioAssay AID1259407 (Chemical Carcinogenesis Research Information System (CCRIS), 2018):
Calls of active or inactive are those of the source. No rule for the calls is given here.

Tested on: CCRIS mutagenicity, Ames/micronucleus/aberration tests
Test: CCRIS mutagenicity studies
[1] = Test System: AMES SALMONELLA TYPHIMURIUM, Strain/Indicator: TA98, Metabolic Activation: NONE, Method: PREINCUBATION
[2] = Test System: AMES SALMONELLA TYPHIMURIUM, Strain/Indicator: TA100, Metabolic Activation: NONE, Method: PREINCUBATION
[3] = Test System: AMES SALMONELLA TYPHIMURIUM, Strain/Indicator: TA100, Metabolic Activation: RAT, LIVER, S-9, AROCLOR 1254, Method: PREINCUBATION
[4] = Test System: AMES SALMONELLA TYPHIMURIUM, Strain/Indicator: TA100, Metabolic Activation: RAT, LIVER, S-9, AROCLOR 1254, Method: STANDARD PLATE
[5] = Test System: AMES SALMONELLA TYPHIMURIUM, Strain/Indicator: TA98, Metabolic Activation: NONE, Method: STANDARD PLATE
[6] = Test System: AMES SALMONELLA TYPHIMURIUM, Strain/Indicator: TA100, Metabolic Activation: NONE, Method: STANDARD PLATE
[7] = Test System: AMES SALMONELLA TYPHIMURIUM, Strain/Indicator: TA1535, Metabolic Activation: NONE, Method: STANDARD PLATE
[8] = Test System: AMES SALMONELLA TYPHIMURIUM, Strain/Indicator: TA1537, Metabolic Activation: NONE, Method: STANDARD PLATE

O=c1c(=O)c2c([N+](=O)[O-])ccc3ccc4cccc1c4c32
mutagenic call [1]: active; positive
mutagenic call (Test System: AMES SALMONELLA TYPHIMURIUM, Strain/Indicator: TA98, Metabolic Activation: RAT, LIVER, S-9, AROCLOR 1254, Method: PREINCUBATION): active; positive
mutagenic call [2]: active; positive
mutagenic call [3]: active; positive

CCCC(=O)OCc1ccc([N+](=O)[O-])cc1
mutagenic call [1]: inactive; negative
mutagenic call (Test System: AMES SALMONELLA TYPHIMURIUM, Strain/Indicator: TA100(NR), Metabolic Activation: NONE, Method: PREINCUBATION): inactive; negative
mutagenic call [2]: active; positive
mutagenic call [3]: active; positive

Cc1c2cc(CO)ccc2nc2c1ccc1ccccc12
mutagenic call [4]: active; positive

NC(=O)N(CCCO)N=O
mutagenic call (Test System: E. COLI B, Strain/Indicator: H/R30R, Metabolic Activation: NONE): active; positive
mutagenic call (Test System: E. COLI B, Strain/Indicator: HS30R, Metabolic Activation: NONE): active; positive

CCCCCCCCCCCCN=C(N)N
mutagenic call (End Point: In vitro chromosomal aberrations, Test System: Cultured human (male) lymphocytes, Metabolic Activation: None): inactive; negative
mutagenic call (End Point: In vitro chromosomal aberrations, Test System: Cultured human (male) lymphocytes, Metabolic Activation: S-9): inactive; negative
mutagenic call (End Point: In vivo micronucleus, Test System: Blood erythrocytes, Species: Mouse, Strain/Sex: ICR (male and female), 5-20/sex/dose, Route: Oral): inactive; negative
mutagenic call (End Point: In vivo micrunucleus, Test System: Bone marrow polychromatic erythrocytes, Species: Mouse, Strain/Sex: Males and females, Route: Oral): inactive; negative
mutagenic call (Test System: Ames Salmonella typhimurium, Strain/Indicator: TA98, Metabolic Activation: None, Method: Plate incorporation): inactive; negative
mutagenic call (Test System: Ames Salmonella typhimurium, Strain/Indicator: TA98, Metabolic Activation: Rat, Liver, S-9, Aroclor, Method: Plate incorporation): inactive; negative
mutagenic call (Test System: Ames Salmonella typhimurium, Strain/Indicator: TA100, Metabolic Activation: None, Method: Plate incorporation): inactive; negative
mutagenic call (Test System: Ames Salmonella typhimurium, Strain/Indicator: TA100, Metabolic Activation: Rat, Liver, S-9, Aroclor, Method: Plate incorporation): inactive; negative
mutagenic call (Test System: Ames Salmonella typhimurium, Strain/Indicator: TA1535, Metabolic Activation: None, Method: Plate incorporation): inactive; negative
mutagenic call (Test System: Ames Salmonella typhimurium, Strain/Indicator: TA1535, Metabolic Activation: Rat, Liver, S-9, Aroclor, Method: Plate incorporation): inactive; negative
mutagenic call (Test System: Ames Salmonella typhimurium, Strain/Indicator: TA1537, Metabolic Activation: None, Method: Plate incorporation): inactive; negative
mutagenic call (Test System: Ames Salmonella typhimurium, Strain/Indicator: TA1537, Metabolic Activation: Rat, Liver, S-9, Aroclor, Method: Plate incorporation): inactive; negative
mutagenic call (Test System: Chinese hamster ovary (CHO) cells, Strain/Indicator: CHO/6-Thioguanine, Metabolic Activation: None): inactive; negative
mutagenic call (Test System: Chinese hamster ovary (CHO) cells, Strain/Indicator: CHO/6-Thioguanine, Metabolic Activation: S-9): inactive; negative
mutagenic call (Test System: E. coli, Strain/Indicator: WP2uvrA, Metabolic Activation: None, Method: Plate incorporation): inactive; negative
mutagenic call (Test System: E. coli, Strain/Indicator: WP2uvrA, Metabolic Activation: Rat, Liver, S-9, Method: Plate incorporation): inactive; negative

CCCCC[C@@](C)(O)/C=C/[C@H]1[C@H](O)CC(=O)[C@@H]1C/C=C\CCCC(=O)O
mutagenic call [5]: inactive; negative
mutagenic call (Test System: AMES SALMONELLA TYPHIMURIUM, Strain/Indicator: TA98, Metabolic Activation: S-9, Method: STANDARD PLATE): inactive; negative
mutagenic call [6]: inactive; negative
mutagenic call (Test System: AMES SALMONELLA TYPHIMURIUM, Strain/Indicator: TA100, Metabolic Activation: S-9, Method: STANDARD PLATE): inactive; negative
mutagenic call [7]: inactive; negative
mutagenic call (Test System: AMES SALMONELLA TYPHIMURIUM, Strain/Indicator: TA1535, Metabolic Activation: S-9, Method: STANDARD PLATE): inactive; negative
mutagenic call [8]: inactive; negative
mutagenic call (Test System: AMES SALMONELLA TYPHIMURIUM, Strain/Indicator: TA1537, Metabolic Activation: S-9, Method: STANDARD PLATE): inactive; negative
mutagenic call (Test System: AMES SALMONELLA TYPHIMURIUM, Strain/Indicator: TA1538, Metabolic Activation: NONE, Method: STANDARD PLATE): inactive; negative
mutagenic call (Test System: AMES SALMONELLA TYPHIMURIUM, Strain/Indicator: TA1538, Metabolic Activation: S-9, Method: STANDARD PLATE): inactive; negative
mutagenic call (Test System: E. COLI, Strain/Indicator: WP2 UVRA, Metabolic Activation: NONE, Method: STANDARD PLATE): inactive; negative
mutagenic call (Test System: E. COLI, Strain/Indicator: WP2 UVRA, Metabolic Activation: S-9, Method: STANDARD PLATE): inactive; negative

c1ccc2c(c1)ccc1c3c(ccc12)CCC3
mutagenic call [6]: inactive; negative
mutagenic call [4]: inactive; negative

CCCCCCCCCCCCCc1ccccc1
mutagenic call [5]: inactive; negative
mutagenic call (Test System: AMES SALMONELLA TYPHIMURIUM, Strain/Indicator: TA98, Metabolic Activation: RAT, LIVER, S-9, AROCLOR 1254 (10%), Method: STANDARD PLATE): inactive; negative
mutagenic call [6]: inactive; negative
mutagenic call (Test System: AMES SALMONELLA TYPHIMURIUM, Strain/Indicator: TA100, Metabolic Activation: RAT, LIVER, S-9, AROCLOR 1254 (10%), Method: STANDARD PLATE): inactive; negative
mutagenic call [7]: inactive; negative
mutagenic call (Test System: AMES SALMONELLA TYPHIMURIUM, Strain/Indicator: TA1535, Metabolic Activation: RAT, LIVER, S-9, AROCLOR 1254 (10%), Method: STANDARD PLATE): inactive; negative
mutagenic call [8]: inactive; negative
mutagenic call (Test System: AMES SALMONELLA TYPHIMURIUM, Strain/Indicator: TA1537, Metabolic Activation: RAT, LIVER, S-9, AROCLOR 1254 (10%), Method: STANDARD PLATE): inactive; negative
mutagenic call (Test System: CHINESE HAMSTER OVARY, Strain/Indicator: CHO (HGPRT), Metabolic Activation: NONE): inactive; negative
mutagenic call (Test System: CHINESE HAMSTER OVARY, Strain/Indicator: CHO (HGPRT), Metabolic Activation: RAT, LIVER, S-9, AROCLOR 1254 (1%)): inactive; negative

Cc1cccc(N=Nc2ccc(N(C)C)cc2)c1
mutagenic call (Test System: AMES SALMONELLA TYPHIMURIUM, Strain/Indicator: TA98, Metabolic Activation: RAT, LIVER, S-9, KC500 OR PHENOBARBITAL, Method: LIQUID SUSPENSION): active; positive
mutagenic call (Test System: AMES SALMONELLA TYPHIMURIUM, Strain/Indicator: TA98, Metabolic Activation: RAT, LIVER, S-9, N-BENZYLIMIDAZOLE, Method: PREINCUBATION): active; positive
mutagenic call (Test System: AMES SALMONELLA TYPHIMURIUM, Strain/Indicator: TA100, Metabolic Activation: RAT, LIVER, S-9, KC500 OR PHENOBARBITAL, Method: LIQUID SUSPENSION): active; positive
mutagenic call (Test System: AMES SALMONELLA TYPHIMURIUM, Strain/Indicator: TA1538, Metabolic Activation: RAT, LIVER, S-9, PHENOBARBITAL, Method: STANDARD PLATE): active; positive
mutagenic call (Test System: UDS RODENT HEPATOCYTES, Strain/Indicator: THY INCORP (NON-S-PHASE), Method: AUTORADIOGRAPHY): active; positive
mutagenic call (Test System: UDS RODENT HEPATOCYTES, Strain/Indicator: THY INCORP (NON-S-PHASE), Method: LIQUID SCINTILLATION COUNTING): active; positive

CCCCCCOC(=O)NO
mutagenic call (Test System: E. COLI, Strain/Indicator: WP2 UVRA, Metabolic Activation: NONE, Method: FLUCTUATION TEST): active; positive
